The source made the active and inactive calls.
What was measured:
[1] = miR-122 activators in hepatoma reporter cells, dose response, cell-based, Huh7 psiCHECK-miR122, Renilla luciferase, cherry-picked (AID 651956); assay type: functional;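 also: huh7 hepatoma cells stably carrying a psiCHECK-2 miR-122 sensor plasmid; renilla luciferase signal reporting endogenous miR-122 activity after 48 h compound exposure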
Beta Lactamase = Beta Lactamase (Pseudomonas aeruginosa, UniProt Q932Y6); assay: beta-lactamase reporter inhibitor potency, dose response, artefact control for TLR9-MyD88 binding inhibitor project, BLA reporter cells, FRET fluorescence (AID 588341); assay type: cell-based;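 also: cell based assay in CHO-K1 cells stably expressing beta-lactamase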
[2] = Fluorescence-based cell-based high throughput dose response assay for inhibitors of the interaction of nucleotide-binding oligomerization domain containing 2 (NOD2) and the receptor-interacting serine-threonine kinase 2 (RIPK2).; assay type: functional; conditions: Homo sapiens
[3] = molecular target: T1, Replicative DNA helicase DnaB (Mycobacterium tuberculosis, UniProt P9WMR3); assay: DnaB intein splicing inhibitors, dose response, biochemical, cell-free fluorescence (AID 449749); assay type: functional
T1 sequence (P9WMR3 whole entry): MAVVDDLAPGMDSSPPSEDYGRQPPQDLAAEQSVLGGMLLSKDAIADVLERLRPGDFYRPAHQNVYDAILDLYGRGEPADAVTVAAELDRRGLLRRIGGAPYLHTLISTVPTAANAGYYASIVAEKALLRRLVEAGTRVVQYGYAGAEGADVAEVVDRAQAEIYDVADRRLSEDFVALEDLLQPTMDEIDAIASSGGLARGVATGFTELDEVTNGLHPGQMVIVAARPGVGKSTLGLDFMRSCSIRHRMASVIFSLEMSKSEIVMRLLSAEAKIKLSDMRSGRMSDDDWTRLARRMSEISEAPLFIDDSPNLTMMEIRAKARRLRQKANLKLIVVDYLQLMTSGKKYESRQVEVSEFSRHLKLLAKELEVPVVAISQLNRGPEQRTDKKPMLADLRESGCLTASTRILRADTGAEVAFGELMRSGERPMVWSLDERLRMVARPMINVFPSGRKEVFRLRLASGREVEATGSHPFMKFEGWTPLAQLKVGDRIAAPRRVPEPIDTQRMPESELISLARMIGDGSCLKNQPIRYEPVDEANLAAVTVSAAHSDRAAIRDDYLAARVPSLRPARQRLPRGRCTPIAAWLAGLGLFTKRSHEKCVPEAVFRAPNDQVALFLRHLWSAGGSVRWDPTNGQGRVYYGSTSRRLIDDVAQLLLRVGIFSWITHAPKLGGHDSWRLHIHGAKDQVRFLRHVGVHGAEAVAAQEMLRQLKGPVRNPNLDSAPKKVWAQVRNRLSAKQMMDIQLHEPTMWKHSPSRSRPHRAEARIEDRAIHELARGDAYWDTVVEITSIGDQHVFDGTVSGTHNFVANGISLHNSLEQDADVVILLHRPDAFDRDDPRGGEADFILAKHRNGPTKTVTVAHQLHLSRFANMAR

[4] = molecular target: Sphingosine 1-phosphate receptor 1 (Homo sapiens, UniProt P21453); assay type: functional;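 also: Tango beta-arrestin reporter U2OS cells stimulated with S1P near its EC80; inhibitor potency meaning antagonism of receptor activation by the natural agonist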
[5] = Counterscreen for antagonists of the orexin 1 receptor (OX1R; HCRTR1): Fluorescence-based cell-based high throughput dose response assay to identify antagonists of the parental CHO cell line. [Related pubchem assays (depositor defined):AID434989, AID435008, AID463079, AID485270, AID492963, AID492964, AID492965, AID493232, AID504699, AID504701]; assay type: functional
ORF 73 = ORF 73 (Human herpesvirus 8, UniProt O40947); assay: inhibitors of C-LANA binding to LBS DNA, dose response, biochemical, fluorescence polarization, cherry-picked samples (AID 504725); set-up: species or system Human gammaherpesvirus 8;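 also: fluorescence polarization of a labeled DNA duplex reporting LANA DNA binding; potency is for inhibitors that block LANA binding to the DNA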
[6] = molecular target: T2, Ubiquitin-conjugating enzyme E2 N (Homo sapiens, UniProt P61088); assay type: functional;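 also: Dose-response confirmation in a TR-FRET assay detecting UBC13-driven polyubiquitin chain formation, inhibition measured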
T2 sequence (P61088 whole entry): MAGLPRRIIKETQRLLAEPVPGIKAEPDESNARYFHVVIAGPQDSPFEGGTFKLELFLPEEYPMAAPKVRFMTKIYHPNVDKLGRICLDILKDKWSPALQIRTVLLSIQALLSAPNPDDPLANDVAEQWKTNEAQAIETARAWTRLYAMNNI

[7] = molecular target: Apoptotic protease-activating factor 1 (Homo sapiens, UniProt O14727); assay type: functional
SUMO-activating enzyme = SUMO-activating enzyme (Homo sapiens, UniProt Q9UBT2); assay: SUMOylation inhibitor hit validation, confirmation, SUMOylation inhibitor project, biochemical, AlphaScreen (AID 2018); assay type: functional
[8] = molecular target: Intestinal-type alkaline phosphatase (Homo sapiens, UniProt P09923); assay: inhibition of human intestinal alkaline phosphatase – biochemical, dose response (AID 488876); assay type: functional
Troponin, cardiac muscle = Troponin, cardiac muscle (Homo sapiens, UniProt P19429+P45379+P63316); assay: inhibitors of cardiac thin filament calcium sensitivity, dose response, biochemical, fluorescence, cardiac regulated thin filaments, triplicate IC50 (AID 504742); assay type: protein-complex assay
Focal adhesion kinase 1 = Focal adhesion kinase 1 (Homo sapiens, UniProt Q05397); assay type: functional;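 also: measured as one member of a kinome panel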
[9] = molecular target: Mitogen-activated protein kinase kinase kinase kinase 4 (Homo sapiens, UniProt O95819); assay type: functional
[10] = molecular target: Glycogen synthase kinase-3 alpha (Homo sapiens, UniProt P49840); assay type: functional;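 also: GSK3A result taken from a broad kinome-wide kinase panel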
cells = assay type: functional, cell-based
[11] = inhibitors of intracellular T. cruzi replication, confirmation, NIH3T3 host cells, beta-gal luminescence (AID 2044); assay type: functional, cell-based;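 also: intracellular parasites grown in NIH/3T3 mouse fibroblasts as host cells; luminescent beta-galactosidase reporter signal from transgenic T. cruzi replicating inside host cells; inhibitors lower the luminescence signal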
[12] = molecular target: T3, Serine/threonine-protein phosphatase (Candida dubliniensis (strain CD36 / CBS 7987 / NCPF 3949 / NRRLY-17841) (Yeast), UniProt B9W6M3); assay: calcineurin pathway inhibitors in yeast reporter, dose response, S. cerevisiae, CDRE-lacZ, luminescence, secondary (AID 2388); assay type: functional, cell-based;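 also: yeast reporter cells carrying a calcineurin-responsive lacZ construct stimulated with calcium chloride; luminescent beta-galactosidase reporter signal in whole cells rather than isolated phosphatase activity; potency for inhibition where a drop in reporter signal means calcineurin blockade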
T3 sequence (B9W6M3 whole entry): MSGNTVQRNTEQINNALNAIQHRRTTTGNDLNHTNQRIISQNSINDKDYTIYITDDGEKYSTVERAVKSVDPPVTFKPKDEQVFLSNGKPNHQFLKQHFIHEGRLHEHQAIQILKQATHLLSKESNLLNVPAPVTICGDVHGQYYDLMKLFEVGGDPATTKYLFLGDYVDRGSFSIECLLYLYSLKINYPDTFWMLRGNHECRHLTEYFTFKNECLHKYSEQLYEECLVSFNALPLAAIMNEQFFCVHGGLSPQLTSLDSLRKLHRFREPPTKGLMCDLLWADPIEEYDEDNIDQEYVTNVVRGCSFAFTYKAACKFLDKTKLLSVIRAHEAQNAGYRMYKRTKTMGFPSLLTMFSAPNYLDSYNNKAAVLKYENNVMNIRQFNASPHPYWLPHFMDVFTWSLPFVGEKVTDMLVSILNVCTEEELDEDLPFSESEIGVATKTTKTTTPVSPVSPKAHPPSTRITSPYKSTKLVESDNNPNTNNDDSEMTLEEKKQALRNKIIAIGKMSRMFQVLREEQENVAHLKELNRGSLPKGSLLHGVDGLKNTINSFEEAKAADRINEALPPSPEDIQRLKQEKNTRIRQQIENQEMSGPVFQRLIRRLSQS

## Cc1ccc(C(=O)OCn2ncc(Cl)c(Cl)c2=O)cc1
[1]
  AC50: 9.52 µM (active)
Beta Lactamase
  IC50: 48.7 µM (inactive)
[2]
  IC50: 0.889 µM (active)
[3]
  AC50: 3.66 µM (active)
[4]
  IC50: 10.6 µM (not active)
[5]
  IC50: > 49.7 µM (inactive)

## O=C(O)CC(C(=O)O)N1C(=O)/C(=C/C=C/c2ccco2)SC1=S (stereo not drawn)
ORF 73
  AC50: 28.9 µM (active)
[6]
  IC50: > 20 µM (inactive)
[7]
  IC50: 36.6 µM (active)
SUMO-activating enzyme
  IC50: 1.12 µM (active)
[8]
  IC50: > 100 µM (inactive)
Troponin, cardiac muscle
  IC50: > 71.5 µM (inactive)

## O=C(Nc1cccc(C2Nc3ccc4ccccc4c3C3C=CCC32)c1)c1ccc(F)cc1 (stereo not drawn)
Focal adhesion kinase 1
  Ki: > 6.31 µM (inactive)
[9]
  Ki: > 5.01 µM (inactive)

## Cc1ccc(-c2cc(-c3cc(Br)ccc3O)[nH]c(=O)c2C#N)s1
[10]
  Ki: 1.58 µM (active)

## CCCC(=O)NC(c1cccs1)c1cc(Cl)c2cccnc2c1O (stereo not drawn)
cells
  EC50: 24.4 µM (active)
[11]
  EC50: 1.06 µM (active)
[12]
  EC50: > 180 µM (inactive)
